The nature of data set [1]: Pathological examination (H&E) of main organs. The class given is in vivo, nude mice. Conditions: i.v., 50 mg/kg, every other day for four weeks. On the procedure: MDA-MB-231 (5 × 10^6 cells) were inoculated into the left abdominal mammary fat pad of 6-week-old female nude mice, and tumor growth was monitored. […] After four weeks of treatment, all mice were sacrificed according to ethical guidelines. Tumors were excised and analyzed. Tumor volume was measured using a Vernier caliper and calculated according to the following formula: π/6 × length × width^2. All animal handling and procedures were approved by the Capital Medical University Institutional Animal Care. Tumor and adjacent tissues were rapidly fixed in 4% paraformaldehyde (Sigma-Aldrich) for at least 24 h and embedded in paraffin for microscopic examination. From the prepared paraffin blocks, 5-μm thick sections were cut and stained with hematoxylin and eosin (H&E) for light microscopic observation. Sections were processed as per standard protocols using 3,3'-diaminobenzidine (DAB) staining. All human and mouse tissues were collected according to protocols approved by the Ethics Committee of Capital Medical University, and informed consent was obtained from all patients.

Data set [2] deals with MDA-MB-231 cells. The data set is described as follows: TUNEL assay. The class given is cell-based, human. The settings on record: compared to DMSO treatment. The text has this: Apoptosis was detected using a Cell Death Detection Fluorescein Kit for TUNEL assay (RiboBio, Guangzhou, China) according to the manufacturer's instructions. […] Signals were detected by fluorescence microscopy. Non-apoptotic cells were visualized under a DAPI (4′,6-diamidino-2-phenylindole) filter.

Data set [3] deals with RGS2 promoter. In words: qChIP of H3 acetylation. The class given is cell-based. The settings on record: MDA-MB-231, T-47D and 4T1 cells.
Protocol: Briefly, the cells were cross-linked with 1% formaldehyde, sonicated, pre-cleared, and incubated with 4 μg of Ace-H3 antibody or IgG, which was followed by the addition of Dynabeads Protein G. Next, the beads were washed with high- and low-salt-concentration buffers, and DNA was eluted and purified using the QIAquick PCR Purification Kit. The amount of the DNA template was analyzed by qPCR using primers specific for five promoter regions.
Data set [4] relates to PANC-1. In words: CCK8 assay IC50. The class given is cell-based. Conditions: Homo sapiens, PANC-1, pancreatic cancer, 72 h. How it is done: (§1) Cell viability was then detected using a CCK8 assay (MedChemExpress, USA) according to the manufacturer's instructions.
(§2) Statistical analyses of all data were performed using GraphPad Prism (version 8.0, Graph Pad Software Inc., San Diego, CA, USA). All the data were analyzed by Student's t-test or one-way ANOVA. The Z-Score was chosen to evaluate the results and experimental deviation. Quantitative data are presented as the mean ± SD. The asterisk (*) denotes statistically significant difference (P < 0.05). IC50 was calculated using a four-parameter fit with variable slope in GraphPad Prism.
On the technique in general: Formazan colour is commonly taken as a measure of viable cells.

The subject of data set [5] is Caco-2. In words: CCK8 assay IC50. The format is cell-based. The settings on record: Homo sapiens, Caco-2, colon cancer, 72 h. How it is done:
as §1, §2

Data set [6] deals with MCF-7. The data set is described as follows: CCK8 assay IC50. The format is cell-based. The settings on record: Homo sapiens, MCF7; MCF-7, 72 h, CCK8, value of the text. How it is done:
as §1, §2

Data set [7] deals with SMMC-7721. In words: CCK8 assay IC50. The settings on record: Homo sapiens, SMMC-7721, liver cancer, 72 h. The format is cell-based. On the procedure:
as §1, §2

For data set [8], the system named is HUVEC. The data set is described as follows: CCK8 assay IC50. The format is cell-based, human. The settings on record: 72 h, normal cells. How it is done: as §1, §2
The test system of data set [9] is MDA-MB-231. The data set is described as follows: CCK8 assay IC50. Conditions: Homo sapiens; MDA-MB-231, 72 h, CCK8, value of the text. The class given is cell-based, human. On the procedure: as §1, §2
Data set [10] has as its system MDA-MB-231, T-47D, and primary breast tumor cells. The data set is described as follows: Colony formation assay. The class given is cell-based, human. Conditions: crystal violet staining. On the procedure: The colony-formation ability of MDA-MB-231 and T-47D cells were measured by the clonogenic assay. […] After treatment, cells were digested and suspended in culture medium at a density of 5 × 10^3 cells/ml. Cells (2,000 cells per well) were seeded into 6-well plates and cultured for two weeks. The, cells were fixed with 4% formaldehyde and washed with phosphate-buffered saline (PBS) and stained with crystal violet for half an hour. Images of colonies were captured using a light microscope.

The test system of data set [11] is histone deacetylase. The data set is described as follows: Western blot of acetylated histone H3 and acetylated α-tubulin. The format is cell-based, human. Conditions: MDA-MB-231 cells, 100 or 200 nM, 24-72 h. (In general: In western blotting, separated proteins are transferred to a membrane and probed.)
Protocol: Total protein was assessed by sodium dodecyl sulfate-polyacrylamide gel electrophoresis using 10% or 15% gels, followed by immunoblotting with the following antibodies. Anti-glyceraldehyde 3-phosphate dehydrogenase (GAPDH) antibody (AC002) was purchased from ABclonal Technology (Woburn, MA, USA); anti-PLCβ3 antibody (14247) was purchased from Cell Signaling Technology (Danvers, MA, USA); anti-β-actin antibody (ab8226) and anti-histone H3 antibody (ab1791) were purchased from Abcam (Cambridge, UK); anti-ace tubulin antibody (66200-1-lg) was purchased from Proteintech Group (Rosemont, IL, USA); anti-γ-catenin antibody was purchased from BD Biosciences (Franklin Lakes, NJ, USA). The GAPDH and β-actin content were analyzed as the loading control.
For data set [12], the system named is non-breast cancer cell lines. The data set is described as follows: CCK8 assay IC50, panel summary. The settings on record: panel of non-breast cancer cell lines, 72 h. The class given is cell-based. On the procedure:
as §1, §2

The test system of data set [13] is MDA-MB-231 cells. In words: RT-qPCR of marker genes. The format is cell-based, human. How it is done:
Reverse transcription was performed using the RevertAid First Strand cDNA Synthesis Kit ([…]) according to the manufacturer's instructions. The primers for the detection of target mRNA are shown in Table S2. β-actin was used as an internal reference. The relative expression of target genes was calculated by the 2^-ΔΔCt method.

Data set [14] relates to Primary breast tumor cells. In words: CCK8 assay IC50. The class given is cell-based, human. The settings on record: Homo sapiens, breast cancer, 72 h.
From the text: (§3) HeLa, MCF-7 and MDA-MB-231 cell lines were purchased from the American Type Culture Collection. MCF-10A, T-47D, PANC-1, A549, HCT-15, Caco-2, SMMC-7721, SH-SY5Y, HUVEC and PC-3 cell lines were obtained from the Chinese Academy of Medical Sciences. MEF was isolated from pregnant mice at 14‒16 days of pregnancy. Primary breast cancer cells were isolated from breast cancer patients. All media including Dulbecco Modified Eagle Medium (DMEM), RPMI 1640 Medium and DMEM/Nutrient Mixture F-12 were supplemented with 10% fetal bovine serum (FBS), 100 units/mL penicillin, and […] streptomycin (Gibco, Waltham, MA, USA). Cells were cultured in a humidified incubator equilibrated with 5% CO2 at 37 °C. Cells were treated for 24-72 h in adherent conditions with compounds from an epigenetic small molecule inhibitor library (L1200, Topscience, Shanghai, China).
as §1
(§4) Statistical analyses of all data were performed using GraphPad Prism (version 8.0, Graph Pad Software Inc., San Diego, CA, USA). All the data were analyzed by Student's t-test or one-way ANOVA. The Z-Score was chosen to evaluate the results and experimental deviation. Quantitative data are presented as the mean ± SD. […] IC50 was calculated using a four-parameter fit with variable slope in GraphPad Prism.

Data set [15] concerns primary breast cancer cells. The data set is described as follows: Intracellular calcium measurement (Fluo-4-AM). The format is cell-based, human. Conditions: thrombin stimulation.
Protocol: After treatment, the cells were digested and seeded in 96-well black plates (Corning Costar, Cambridge, MA, USA) and cultured for 20 h. For measurement of [Ca^2+]i, the cells were labeled with Fluo-4-AM in serum-free medium for half an hour at room temperature. After washing with Dulbecco's Phosphate Buffered Saline (D-PBS), cells were overlaid in Hank's balanced salt solution (5.4 mM KCl, 1 mM MgCl2, 20 mM hydroxyethyl piperazineethanesulfonic acid (HEPES), 120 mM NaCl, 10 mM glucose, 0.2 mM Ethylenebis(oxyethylenenitrilo)tetraacetic acid (EGTA)). Continuous fluorescence intensity was detected after thrombin was added as a calcium agonist by an automated sampler. Response over baseline was assessed as a relative measure of [Ca^2+]i.
Data set [16] deals with MEF. In words: CCK8 assay IC50. The format is cell-based, mouse. The settings on record: Mus musculus, normal cells, 72 h.
From the text: as §3, §1, §4

The test system of data set [17] is breast cancer cells. The data set is described as follows: Transwell cell invasion assay. The format is cell-based, human. The settings on record: matrigel transwell, P < 0.05. How it is done:
Transwell chamber filters (BD) were coated with Matrigel diluted (1:10) in serum-free medium. […] After treatment, cells were digested and suspended in serum-free media. Cells (8,000 cells per well) were seeded into the upper chamber of the transwell chambers, and the chambers were transferred into 24-well plates containing 500 μl culture medium per well. After 20 h of incubation, cells in the upper chamber were fixed with 4% formaldehyde, washed with PBS, and stained with crystal violet for half an hour. Images of invasive cells were captured using a light microscope.

Data set [18] has as its system MDA-MB-231, T-47D, and primary breast tumor cells. The data set is described as follows: Wound-healing assay. Conditions: compared with DMSO treatment, P < 0.05. The class given is cell-based, human. On the procedure: Tumor cell migration was determined by the wound healing assay. […] After treatment, a straight scratch was made onto the cell monolayer using a pipette tip. The cells were washed with PBS three times to remove the floating cells, and the cells were cultured in serum-free medium for 24 h. Cell wound edges were captured using a light microscope.

`CN(C)Cc1c(C(=O)NCCOc2ccc(C(=O)NO)cc2)oc2ccccc12` [PCI-24781]: the “histological changes in the main organs (heart, liver, lung, spleen, and kidney)” value in data set [1] was “did not exhibit serious histological changes”. Besides, in [2], the “apoptosis (TUNEL)” value is on record as “higher rate of apoptosis”. Also, in data set [3], the “H3 acetylation at RGS2 promoter regions (qChIP)” value was “strong binding to RGS2 #2 and #3 promoter regions of H3 acetylation”. Moreover, the IC50 (as a rule, the concentration that inhibits the measured activity by half) in data set [4] came to 3 µM; in data set [5] it was 2 µM; in [6], 0.896 µM; in [7], 12 µM; in data set [8] (Homo sapiens), 4.2 µM; in data set [8], 4.17 µM. In addition, the IC50 was 0.663 µM in data set [9], over 1 µM in [12], 0.876 µM in data set [14] and 15 µM in data set [16]. Further, in data set [10], the colony formation entry is “decreased colony formation”. The “acetylated histone H3 and acetylated α-tubulin levels” value in data set [11] is “time-dependent and dose-dependent accumulation of acetylated histone H3 (H3) and acetylated α-tubulin”. Also, in [13], the “expression of Ca^2+-related pathway markers (SYT1, SYTL2, SYT7, SYT12, TC2N, MMP1, MMP3, PLCβ3)” value is reported as “downregulated”. The “expression of MMP2, MMP15, and MMP16” value in [13] was “significantly inhibited”. Moreover, the “expression of epithelial markers (α-catenin, γ-catenin)” value in data set [13] is given as “significant upregulation”. Further, in [13], the “mRNA levels of mesenchymal/NE markers (N-cadherin, vimentin, fibronectin, Syn, ASH1, NCAM1)” value is “either inhibited or unaffected”. The “amplitude of [Ca^2+]i oscillations” value in [15] is “significant decrease in the amplitude”. The invasive capacity result in [17] is “significant reduction in the invasive capacity”. Further, the “wound closure (cell migration)” value in data set [18] is “significant delay”.

Source of the values: publication PMC7797697 (Theranostics, 2021).
